In US10712339B2, “Engineering of a novel breast tumor microenvironment on a microfluidic chip” (Arizona Board of Regents on behalf of Arizona State …, priority 2014, dated 2020):

Test system: Endothelial cells (HUVECs)
Description: To study vasculogenesis and to optimize the ECM composition for endothelial cell sprouting, we first developed a microfluidic model comprised of a single culture region surrounded by the media region. This device was selected to study endothelial growth without the interference of other cell types or the stroma. Since the media channel is in a different compartment from the cell culture region, it facilitated the development of a gradient of biomolecules. To encapsulate endothelial cells fibrin was chosen, as it is known to play a major role in regulating angiogenesis in 3D ECM. Endothelial cells (HUVECs) at a cell density of 20 million cells/ml were injected into the devices and growth and maturation of vascular networks were monitored over a culture period of 5 days. We introduced vascular endothelial growth factor (VEGF) in to the culture media and assessed the subsequent effects on vasculogenesis. VEGF is known as a major growth factor secreted during cancer progression which leads to formation of new blood vessels. […] We primarily compared the diameter and branching of vascular networks and further assessed the permeability of microvessels within each experimental condition.

VEGF
permeability of microvessels (VEGF in culture media vs No VEGF control): higher permeability
structure of endothelial networks (VEGF in culture media vs No VEGF control, 5 day culture): impaired structurally
diameter of the formed vascular networks (addition of VEGF, endothelial mono-culture in single layer platform): reduced
endothelial cell morphology and intercellular connections (low and high VEGF conditions vs No VEGF control, from day 1): elongated morphology with intercellular connections
